Consider one molecule from paper PMC9602571, “Discovery of a Dual SENP1 and SENP2 Inhibitor” (International Journal of Molecular Sciences, 2022).

Series [1] has as its target T1, SENP1 (Homo sapiens, UniProt Q9P0U3).
T1 construct: Human recombinant, His6-SENP1 Catalytic Domain; His6 (N); purchased Boston Biochem (Bio-Techne AG) E-700
T1 sequence (Q9P0U3 450-613 limits assumed): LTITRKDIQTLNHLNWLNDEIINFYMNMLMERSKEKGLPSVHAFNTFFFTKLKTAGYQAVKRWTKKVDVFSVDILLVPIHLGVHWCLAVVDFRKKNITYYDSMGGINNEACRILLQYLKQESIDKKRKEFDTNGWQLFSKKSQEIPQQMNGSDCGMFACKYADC
As to the kind of experiment: Fluorogenic SENP1 assay, SUMO3-AMC substrate. Type of series: biochemical. Conditions: n = 2. The protocol:
Human recombinant, His6-SENP1 Catalytic Domain (Boston Biochem Cat# E-700, Bio-Techne AG, Zug, Switzerland) was prepared in reaction buffer (50 mM HEPES, 150 mM NaCl, 0.5 mM EDTA, 1 mM DTT, pH 7.5, 0.01% CHAPS). To this solution, a 20 mM or 50 mM inhibitor stock solution in DMSO was added and the mixture was incubated for 15 min at ambient temperature. […] The data were analyzed by taking the slope (signal/time) of the linear portion of measurement. The slope was calculated using Excel and the curve fits were performed using GraphPad Prism7 with a four-parameter least-squares fit. The final reaction conditions contained 0.02 nM SENP1 and 300 nM SUMO1/2 or 3-AMC).

For series [2], the target named is T1, SENP1. As to the kind of experiment: SENP1 endopeptidase activity with proSUMO3 (SDS gel). Type of series: biochemical. To be noted: inhibitor 200 µM, proSUMO3 5 µM, 37 °C, 1 h. As for the experimental part: Measurements were performed using six different inhibitor concentrations starting at 200 μM of 11 with three-fold dilution. Human recombinant, His6-SENP1 Catalytic Domain (Boston Biochem Cat# E-700, Bio-Techne AG, Zug, Switzerland) was prepared in reaction buffer (50 mM HEPES, 150 mM NaCl 0.5 mM EDTA, 1 mM DTT, pH 7.5, 0.01% CHAPS) as 555 nM solution. A 20 mM compound DMSO stock-solution (1.1 µL) was added to the freshly prepared 555 nM enzyme solution (98.9 µL). […] Then, 50 µM proSUMO3 (5 µL) was added to the freshly prepared enzyme inhibitor solution (45 µL) and incubated for 60 min at 37 °C and subsequently the reaction was stopped by adding 4 × Laemmli-Buffer (16.7 µL) and denaturing the protein at 100 °C for 30 min. Those solutions (10 µL) were loaded on a casted 15% sodium dodecyl sulfate polyacrylamide gel and separated on a Mini-PROTEAN Tetra Cell (Bio-Rad, Hercules, CA, USA). After SDS-PAGE gel electrophoresis separation, the gels were stained with staining solution Bio-Safe Coomassie Brilliant Blue G-250 (BioRad) for 60 min. De-staining was performed with 40% (v/v) methanol, 10% (v/v) glacial acetic acid, 50% (v/v) Milli-Q water until protein bands became visible.

The target in series [3] is T1, SENP1. As to the kind of experiment: Photo crosslinking experiments with SENP1. Conditions: competitor 400 µM, probe 56 200 µM. Type of series: binding. The protocol:
A buffer exchange of the commercially available 6 × His-SENP1 Protein (Boston Biochem Cat# E-700) to a 50 mM HEPES, 150 mM NaCl; 0.5 mM EDTA, 1 mM DTT, pH 7.5 was performed. A total of 200 μM of the photo affinity probe 56 with or without competitor molecule 11 (400 μM) was incubated in 10 uM SENP1 for 30 min at 0 °C. Subsequently, the mixtures were irradiated in a Proma UV exposure unit equipped with four 8 Watt lamps (Hitachi FL8BL-8, ~350 nm) for 30 min at 0 °C. Then, 50 µL of the crosslinked proteins were mixed with freshly prepared click mix solution (50 μL; 1 mM CuSO4, 1 mM TCEP, 100 uM THPTA from a 5 mM DMSO stock, dissolved in Milli-Q Water) and a 10 mM stock solution of azide fluor 545 (1 μL) and incubated at 0 °C for 14 h. […] Protein samples for SDS-PAGE were first prepared in 1 × Laemmli sample buffer (diluted from 4 × Laemmli sample buffer (ROTI®Load), and subsequently denatured at 100 °C for 15 min. After SDS-PAGE gel electrophoresis separation, the fluorescence was visualized (Ex. 520 nm, Em. 575 nm) on the SDS PAGE gel using ImageQuant^TM 4000 LAS (GE Healthcare, Chicago, IL, USA). Secondly, the gels were stained with Bio-Safe Coomassie Brilliant Blue G-250 (BioRad) for 60 min. De-staining was performed with 40% (v/v) methanol, 10% (v/v) glacial acetic acid, 50% (v/v) Milli-Q water until protein bands became visible.

Series [4] deals with T1, SENP1. As to the kind of experiment: Mode of inhibition study, SENP1 and SUMO1-AMC kinetic measurement. Type of series: biochemical. The protocol:
A mode of inhibition study with 11 was performed by kinetic measurement with SENP1 and SUMO1-AMC employing five different substrate concentrations (Figure 4). The IC50 values […] slightly by lowering the SUMO1-AMC substrate concentration from 1000 nM to 62.5 nM, indicating a slight binding preference to the SUMO1-SENP1 complex (Figure 4A).
IC50 measurements were performed with at least two replications using eight concentrations starting at 200 μM and for the fragments at 500 μM with three-fold dilution. Human recombinant, His6-SENP1 Catalytic Domain (Boston Biochem Cat# E-700, Bio-Techne AG, Zug, Switzerland) was prepared in reaction buffer (50 mM HEPES, 150 mM NaCl, 0.5 mM EDTA, 1 mM DTT, pH 7.5, 0.01% CHAPS). To this solution, a 20 mM or 50 mM inhibitor stock solution in DMSO was added and the mixture was incubated for 15 min at ambient temperature. The substrate SUMO1/2 or 3-AMC (SUMO1-AMC; Boston Biochem Cat# UL-551; SUMO2-AMC; Boston Biochem Cat# UL-758; SUMO3-AMC; Boston Biochem Cat# UL-768; Bio-Techne AG, Zug, Switzerland) was delivered to a 96 well-plate to initiate the reaction. The enzyme activities were monitored (Ex/Em = 355/460 nm) as a time-course measurement of the increase in fluorescence signal from SUMO1/2 or 3-AMC for 60 min at 25 °C. The data were analyzed by taking the slope (signal/time) of the linear portion of measurement. The slope was calculated using Excel and the curve fits were performed using GraphPad Prism7 with a four-parameter least-squares fit. The final reaction conditions contained 0.02 nM SENP1 and 300 nM SUMO1/2 or 3-AMC).

Like-named read-outs stand apart in the source and are kept apart here.

`O=C(Cn1nnc(-c2ccccc2)n1)N1c2ccccc2NC(=O)C12CCCC2` [Compound 11, 1′-[2-(5-Phenyl-2H-1,2,3,4-tetrazol-2-yl)acetyl]-3′,4′-dihydro-1′H-spiro[cyclopentane-1,2′-quinoxalin]-3′-one]: the melting point was 237 °C (dec.). The IC50 in series [1] stood at 59 µM. The “inhibition of SENP1 endopeptidase activity (proSUMO3 maturation)” value in series [2] was “full inhibition”. The “fluorescently labelled band of SENP1 in competition with photo probe 56” value in series [3] is “significantly decreased”. The “alpha (mixed inhibition model)” value in series [4] (global Michaelis-Menten fit) amounted to 0.23. In series [4] (global Michaelis-Menten fit, GraphPad Prism, read-out: KI (mixed inhibition model)), the Ki worked out at 10.6 µM. In addition, the Ki in series [4] (global fit, unit inferred, read-out: Ki (Figure 4B)) is 10.6 µM. For the same molecule, the half-maximal inhibitory concentration (IC50) in series [4] (substrate 62.5 nM, read-out: IC50 at SUMO1-AMC 62.5 nM) amounted to 6.65 µM. Moreover, the IC50 in series [4] (substrate 125 nM, read-out: IC50 at SUMO1-AMC 125 nM) was determined as 5.82 µM. Moreover, in series [4] (substrate 250 nM, read-out: IC50 at SUMO1-AMC 250 nM), the 50% inhibitory concentration (IC50) is 4.72 µM. Further, in series [4] (substrate 500 nM, read-out: IC50 at SUMO1-AMC 500 nM), the IC50 turned out to be 4.04 µM. Moreover, the IC50 in series [4] (substrate 1000 nM, read-out: IC50 at SUMO1-AMC 1000 nM) came to 3.15 µM.

As usually defined, the IC50 is the concentration that gives 50% inhibition. By Ki is commonly meant a measure of affinity in units of concentration, obtained from inhibition or displacement. The term melting point denotes the temperature of the solid-liquid transition.
